The values below come from paper PMC8158701, “Characterization of the CYP3A4 Enzyme Inhibition Potential of Selected Flavonoids” (Molecules, 2021).

For data set [1], the target named is T1, CYP3A4 (Homo sapiens, UniProt P08684). The data set can be described thus: CYP3A4 inhibition and inactivation kinetics, nifedipine oxidation as marker reaction. Here is the method: Enzyme incubations were performed in triplicate, with mechanical stirring in a water bath at 37 °C. Aliquots of flavonoids with a final concentration of 1 μM were dissolved in methanol, transferred to glass tubes, and evaporated to dryness, except in control samples without the inhibitor (flavonoid). After the evaporation of the solvent, an incubation mixture was prepared to a volume of 100 μL, consisting of 5 pmol CYP3A4 enzyme, 50 mM potassium phosphate buffer (pH 7.4), and ultrapure water. An NADPH generating system composed of 0.1 M G6P: 10 mg/mL NADP^+: 1000 IU/mL G6PDH = 50:25:1 (v/v/v) was prepared immediately before use. This generating system contains glucose-6-phosphate dehydrogenase that regenerates NADP^+ into NADPH, keeping the concentration of the cytochrome P450 coenzyme (NADPH) constant in the incubation. The addition of the generating system (15% of the volume in the final incubation, v/v) started the reaction. Nifedipine was used to test out the residual enzyme activity at a final concentration of 200 μM. The reaction was stopped using 1 mL of ice-cold 1% solution of formic acid in dichloromethane. The samples were mixed, then centrifuged for 10 min on 1900g (Rotofix 32, Westfalia, Germany). After centrifugation, two layers were formed (water and organic layer). 850 µL of the organic layer was transferred to cuvettes and evaporated. The analyte was then dissolved in 30 µL of methanol. An Agilent Zorbax SB C18 column (4.6 × 250 mm, 3 μm, Agilent Technologies, Santa Clara, CA, USA) was used to analyze the samples by HPLC. The mobile phase was composed of methanol and water in a ratio of 64:36. The analysis was isocratic. The flow was set at 1.0 mL min^−1. The injection volume was set at 10 µL. Nifedipine was used as a marker substrate. The reaction observed was the oxidation of nifedipine. Chromatograms were recorded at 254 nm. The duration of the analysis was set at 25 min. The retention time of nifedipine is 7.1 min and that of oxidized nifedipine is 10.8 min [42]. […] For all the flavonoids, half maximal inhibitory concentration (IC50), constant of inhibition (Ki), constant of inactivation speed (kinact), and inactivation efficacy (kinact/Ki) were determined.
A one-sided t-test would be used to assess the statistical significance in the differences between samples and controls, based on measurements of residual activity. A nonlinear equation was used to calculate the IC50 value. The Michaelis-Menten equation was used to determine the inactivation constant and the inactivation rate of the inhibitor. Statistical processing and graph preparations were done using Program R (The R Project for Statistical Computing, Vienna, Austria) and Microsoft Excel (Microsoft, Redmond, WA, USA).

For data set [2], the target named is T1, CYP3A4. Also on record: purchased Thermo Fisher Scientific (Waltham, MA, USA); host or cells: baculosomes (baculovirus-infected insect cell microsomes). The conditions noted are these: cited from earlier work; for inhibition of CYP3A4: 1 µM concentration, testosterone as marker substrate; for IC50 / Ki / kinact / kinact/Ki: testosterone (TSN) as marker substrate.

The conditions of data set [3]: combination treatment of apigenin and paclitaxel in vivo; cited from earlier work.
Data set [4] deals with T1, CYP3A4. As to the kind of experiment: Pseudo-irreversible inhibition assay (incubation, dialysis with or without potassium hexacyanoferrate, testosterone marker). Format: biochemical. Also on record: purchased Thermo Fisher Scientific (Waltham, MA, USA); host or cells: baculosomes (baculovirus-infected insect cell microsomes). The conditions noted are these: after incubation and dialysis (Figure 4). Here is the method: The aim of this assay is to test out the formation of covalent complexes with ferrous iron (Fe^2+), by assessing a recovery of enzyme activity after dialysis with or without the addition of an oxidant. Three types of experiments were performed for each flavonoid: incubation mixture without flavonoids (control), incubation mixture with flavonoid, and incubation mixture with flavonoid to which oxidant was added after incubation. Each incubation with the inhibitor was performed for 30 min using the same experimental settings as described above (Section 4.2.1). After incubation, the samples were transferred to dialysis cartridges. Aa oxidant—20 mM solution of potassium hexacyanoferrate was added to one of the incubations before dialysis. The cassettes (Slide-A-Lyzer Dialysis Cassettes, Thermo Fisher Scientific, Waltham, MA, USA) were immersed in 50 mM potassium phosphate buffer solution (pH 7.4) for 30 min (dialysis solution was exchanged three times). After dialysis, the samples were transferred from the cassette back to the glass tube, and the residual enzyme activity was assessed using testosterone as a marker substrate (200 μM final concentration). As the NADPH generating system was also dialyzed, it was again added to the incubations to initiate enzyme reaction. […] The samples were analyzed by HPLC.

Details of data set [5]: method as in PMID 17093006. The conditions noted are these: rats, chrysin 20–100 µM; cited from earlier work.
On the set-up of data set [6]: method as in PMID 7937537. The settings on record: healthy volunteers; cited from earlier work.
[7] abbreviates: human, CYP3A4 enzyme, pH 7.4, probe nifedipine (200 µM), nifedipine oxidation.
The mark [8] stands for this setting: human, CYP3A4 enzyme, pH 7.4, probe nifedipine (200 µM), nifedipine oxidation, kinact/Ki (inactivation efficiency), nifedipine (NIF) as marker substrate, ratio of inactivation rate constant and inhibition constant.
Where [9] appears, read: nifedipine (NIF) as marker substrate, ratio of inactivation rate constant and inhibition constant.

The structures appear in SMILES notation. Like-named read-outs stand apart in the source and are kept apart here.

T1 sequence (P08684 whole entry): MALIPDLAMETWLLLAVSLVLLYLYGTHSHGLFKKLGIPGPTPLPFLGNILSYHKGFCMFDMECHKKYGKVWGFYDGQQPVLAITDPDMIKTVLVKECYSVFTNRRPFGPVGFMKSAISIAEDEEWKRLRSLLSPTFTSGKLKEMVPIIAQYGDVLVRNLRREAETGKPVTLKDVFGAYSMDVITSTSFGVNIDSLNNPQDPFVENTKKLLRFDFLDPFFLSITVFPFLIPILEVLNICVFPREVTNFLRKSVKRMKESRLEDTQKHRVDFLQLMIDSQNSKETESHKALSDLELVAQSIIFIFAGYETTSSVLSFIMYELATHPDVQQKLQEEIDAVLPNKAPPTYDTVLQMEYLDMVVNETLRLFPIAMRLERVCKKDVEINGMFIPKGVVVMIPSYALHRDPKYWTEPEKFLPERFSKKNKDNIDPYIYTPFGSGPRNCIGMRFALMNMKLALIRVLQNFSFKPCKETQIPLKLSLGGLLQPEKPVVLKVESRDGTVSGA

On CYP3A4 [1], `COc1ccc(-c2cc(=O)c3c(O)cc(O)cc3o2)cc1` [acacetin] returned a concentration for half-maximal inhibition (IC50) of 7.5 ± 2.7 µM and a Ki of 12.1 ± 5.6 µM. At CYP3A4 [1] (setting [7]), the kinact was 0.00167 s⁻¹. Moreover, the kinact/KI on CYP3A4 [1] (setting [8]) is approximately 167 M⁻¹ s⁻¹. Also, the “kinact/Ki (inactivation efficiency)” value on CYP3A4 [1] (setting [9]) turned out to be 130 M⁻¹ s⁻¹. For the same compound, on CYP3A4 [2], the “inhibition of CYP3A4” value is recorded as “statistically significant inhibition”, the IC50 is 10.9 ± 0.3 µM, the Ki is 6 ± 3 µM and the kinact is 0.036 ± 0.006 min⁻¹. In addition, the kinact/Ki on CYP3A4 [2] is 100 M⁻¹ s⁻¹.
For `O=c1cc(-c2ccc(O)cc2)oc2cc(O)cc(O)c12` [apigenin], the “oral bioavailability of paclitaxel” value in data set [3] is “increase in oral bioavailability of paclitaxel”. Also, the “inhibition of CYP3A4” value at CYP3A4 [2] is reported as “statistically significant inhibition”.
Take `O=c1cc(-c2ccccc2)oc2cc(O)cc(O)c12` [chrysin, 5,7-dihydroxy-flavone]: at CYP3A4 [4], the “reduction of enzyme activity” value was “approximately 99%”. On CYP3A4 [1], this compound gave an IC50 of 2.5 ± 0.6 µM and a Ki of 2.4 ± 1 µM. Besides, on CYP3A4 [1] (human, pH 7.4), the kinact is 0.00117 s⁻¹ and the “kinact/Ki (inactivation efficiency)” value was determined as 483 M⁻¹ s⁻¹. The kinact/KI at CYP3A4 [1] (human, pH 7.4, kinact/Ki (inactivation efficiency)) is 500 M⁻¹ s⁻¹. Moreover, in data set [5], the “AUC and peak serum concentration (Cmax) of nitrofurantoin” value is given as “significantly increased”. At CYP3A4 [2], the “inhibition of CYP3A4” value is given as “statistically significant inhibition”, the half-inhibitory concentration (IC50) was 0.6 ± 0.5 µM, the Ki was 0.6 ± 0.3 µM and the inactivation rate constant (kinact) is 0.065 ± 0.005 min⁻¹. Further, the kinact/Ki on CYP3A4 [2] is 1800 M⁻¹ s⁻¹.
Consider `CC[C@H]1OC(=O)[C@H](C)[C@@H](O[C@H]2C[C@@](C)(OC)[C@@H](O)[C@H](C)O2)[C@H](C)[C@@H](O[C@@H]2O[C@H](C)C[C@H](N(C)C)[C@H]2O)[C@](C)(O)C[C@@H](C)C(=O)[C@H](C)[C@@H](O)[C@]1(C)O` [erythromycin], for which, in data set [6], the “increase in AUC of cerivastatin” value is recorded as 21%.
In the case of `O=C1CC(c2ccccc2)Oc2cc(O)cc(O)c21` (centres unmarked) [pinocembrin, 5,7-dihydroxy-flavanone], on CYP3A4 [1], the IC50 is 4.3 ± 1.1 µM and the Ki was found to be 5.1 ± 1.6 µM. Further, the kinact on CYP3A4 [1] (setting [7]) was 0.000667 s⁻¹. At CYP3A4 [1] (setting [8]), the second-order inactivation constant (kinact/KI) was approximately 167 M⁻¹ s⁻¹. Moreover, the “kinact/Ki (inactivation efficiency)” value on CYP3A4 [1] (setting [9]) came to 130 M⁻¹ s⁻¹. Also, at CYP3A4 [2], the “inhibition of CYP3A4” value was “statistically significant inhibition”, the IC50 was 5 ± 0.6 µM, the Ki is 1.2 ± 0.3 µM and the inactivation rate constant (kinact) was 0.018 ± 0.001 min⁻¹. In addition, the kinact/Ki on CYP3A4 [2] was 250 M⁻¹ s⁻¹.

What is called IC50 is the concentration at which inhibition is half-maximal. A word on the kinact: it is the maximal first-order rate at which the target is inactivated. As usually defined, the kinact/KI is the second-order rate constant of inactivation.
